According to ChEMBL document CHEMBL1201862, “PubChem BioAssay data set” (2004):
Active and inactive are the calls of the source.

Columns and labels:
[1] = biological target: T1, Heat shock factor protein 1 (Mus musculus, UniProt P38532); test: enhancement of HSF1-driven luciferase signal – cell-based, NIH3T3, luminescence, dose retest, confirmation (AID 435004); assay type: functional;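 note: stress induced by proteasome inhibitor MG132 added 30 min after compound; luciferase reporter driven by HSF1 response element in NIH3T3 cells; actives raise luminescence as potentiators of the MG132 stress response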
T1 sequence (P38532 whole entry): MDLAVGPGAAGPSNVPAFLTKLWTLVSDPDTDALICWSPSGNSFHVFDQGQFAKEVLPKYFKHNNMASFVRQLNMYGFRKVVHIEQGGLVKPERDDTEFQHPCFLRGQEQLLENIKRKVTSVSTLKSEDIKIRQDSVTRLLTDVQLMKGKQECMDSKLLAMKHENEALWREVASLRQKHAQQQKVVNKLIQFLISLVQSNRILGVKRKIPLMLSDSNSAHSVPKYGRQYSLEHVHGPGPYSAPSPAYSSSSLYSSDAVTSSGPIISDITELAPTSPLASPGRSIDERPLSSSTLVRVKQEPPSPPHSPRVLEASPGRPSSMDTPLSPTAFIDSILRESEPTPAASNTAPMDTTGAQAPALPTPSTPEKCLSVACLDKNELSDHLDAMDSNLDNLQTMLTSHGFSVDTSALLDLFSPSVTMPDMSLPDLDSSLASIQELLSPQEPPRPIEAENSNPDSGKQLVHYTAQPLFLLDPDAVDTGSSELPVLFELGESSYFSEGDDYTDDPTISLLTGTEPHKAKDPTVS

H9c2 = test: cells; assay type: functional, cell-based; conditions: Rattus norvegicus, H9c2, Myocardium;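 note: confirmatory concentration-response retest of ultra-high-throughput screening hits for modulation of myocardial damage; cell death induced by hydrogen peroxide oxidative stress; compound pretreatment for 60 min then peroxide exposure for 2 h; potency is for protecting the cells against peroxide damage rather than for killing them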
Cytochrome P450 2D6 = Cytochrome P450 2D6 (Homo sapiens, UniProt P10635);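 note: CYP2D6 member of a cytochrome P450 panel assay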
Cytochrome P450 2D6, sequence (P10635 whole entry): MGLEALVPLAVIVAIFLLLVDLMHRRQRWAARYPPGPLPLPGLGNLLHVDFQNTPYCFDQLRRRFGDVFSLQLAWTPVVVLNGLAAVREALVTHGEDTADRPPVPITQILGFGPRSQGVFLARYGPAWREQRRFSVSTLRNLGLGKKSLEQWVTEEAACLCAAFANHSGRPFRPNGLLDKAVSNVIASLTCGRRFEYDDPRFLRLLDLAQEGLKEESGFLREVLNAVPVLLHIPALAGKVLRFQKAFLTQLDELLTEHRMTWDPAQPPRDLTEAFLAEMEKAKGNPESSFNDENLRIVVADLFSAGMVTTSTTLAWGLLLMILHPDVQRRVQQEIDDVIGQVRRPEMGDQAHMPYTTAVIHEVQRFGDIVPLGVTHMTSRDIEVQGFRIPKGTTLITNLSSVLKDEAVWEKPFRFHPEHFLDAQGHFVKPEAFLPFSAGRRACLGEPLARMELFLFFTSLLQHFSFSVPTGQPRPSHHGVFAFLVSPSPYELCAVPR

Cytochrome P450 1A2 = biological target: T2, Cytochrome P450 1A2 (Homo sapiens, UniProt P05177);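 note: PubChem cytochrome P450 panel assay, CYP1A2 panel member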
T2 sequence (P05177 whole entry): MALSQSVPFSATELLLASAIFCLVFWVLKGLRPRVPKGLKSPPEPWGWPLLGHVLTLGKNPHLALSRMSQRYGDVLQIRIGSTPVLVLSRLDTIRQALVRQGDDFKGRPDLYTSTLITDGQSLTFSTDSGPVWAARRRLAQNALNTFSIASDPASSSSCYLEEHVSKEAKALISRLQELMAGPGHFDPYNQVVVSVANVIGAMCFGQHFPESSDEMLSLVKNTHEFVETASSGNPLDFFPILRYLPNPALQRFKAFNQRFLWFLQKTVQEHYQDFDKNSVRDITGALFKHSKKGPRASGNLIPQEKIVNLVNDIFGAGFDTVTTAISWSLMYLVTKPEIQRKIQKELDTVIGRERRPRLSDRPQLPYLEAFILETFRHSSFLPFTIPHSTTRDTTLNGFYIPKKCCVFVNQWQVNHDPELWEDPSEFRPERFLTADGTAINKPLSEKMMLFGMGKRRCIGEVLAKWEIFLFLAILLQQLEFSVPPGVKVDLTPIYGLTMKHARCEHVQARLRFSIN

Cytochrome P450 2C19 = Cytochrome P450 2C19 (Homo sapiens, UniProt P33261); test: Cytochrome panel assay with activity outcomes. Panel member name: p450-cyp2c19 Compounds with AC50 equal or less than 10 uM are considered active; assay type: functional
Cytochrome P450 2C19, sequence (P33261 whole entry): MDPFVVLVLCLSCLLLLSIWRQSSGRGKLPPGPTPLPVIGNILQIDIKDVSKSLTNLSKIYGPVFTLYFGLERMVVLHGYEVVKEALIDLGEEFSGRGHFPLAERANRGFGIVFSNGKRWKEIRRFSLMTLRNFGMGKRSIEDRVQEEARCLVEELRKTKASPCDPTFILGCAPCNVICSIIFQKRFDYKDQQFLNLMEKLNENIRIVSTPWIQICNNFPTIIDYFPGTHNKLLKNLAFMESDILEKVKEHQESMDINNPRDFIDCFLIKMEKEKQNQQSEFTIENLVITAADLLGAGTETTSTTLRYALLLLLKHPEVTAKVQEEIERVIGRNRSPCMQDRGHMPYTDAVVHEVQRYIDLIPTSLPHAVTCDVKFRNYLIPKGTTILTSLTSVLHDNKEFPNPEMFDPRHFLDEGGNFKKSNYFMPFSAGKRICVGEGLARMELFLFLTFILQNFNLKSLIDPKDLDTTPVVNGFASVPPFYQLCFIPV

[2] = Luminescence Cell-Based Dose Confirmation HTS to Identify Activators of 5'UTR Stem-Loop Driven Alpha-Synuclein mRNA Translation in H4 Neuroglioblastoma Cells. [Related pubchem assays: 1829 (Project Summary), 1814 (Primary HTS)]; assay type: functional
[3] = Luminescence Cell-Based Dose Response HTS to Identify Activators of Luciferase Translation or Activity in H4 […] Cells. [Related pubchem assays: 1829 (Project Summary), 1814 (Primary HTS)]; assay type: functional
H4 = test: Luminescence Cell-Based Dose Response HTS to Identify Activators of 5'UTR Stem-Loop Driven Prion Protein mRNA Translation in H4 Neuroglioblastoma Cells. [Related pubchem assays: 1829 (Project Summary), 1814 (Primary HTS)]; assay type: functional; conditions: Homo sapiens
Cytochrome P450 3A4 = Cytochrome P450 3A4 (Homo sapiens, UniProt P08684);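 note: CYP3A4 tested as one member of a cytochrome P450 panel screen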
Cytochrome P450 3A4, sequence (P08684 whole entry): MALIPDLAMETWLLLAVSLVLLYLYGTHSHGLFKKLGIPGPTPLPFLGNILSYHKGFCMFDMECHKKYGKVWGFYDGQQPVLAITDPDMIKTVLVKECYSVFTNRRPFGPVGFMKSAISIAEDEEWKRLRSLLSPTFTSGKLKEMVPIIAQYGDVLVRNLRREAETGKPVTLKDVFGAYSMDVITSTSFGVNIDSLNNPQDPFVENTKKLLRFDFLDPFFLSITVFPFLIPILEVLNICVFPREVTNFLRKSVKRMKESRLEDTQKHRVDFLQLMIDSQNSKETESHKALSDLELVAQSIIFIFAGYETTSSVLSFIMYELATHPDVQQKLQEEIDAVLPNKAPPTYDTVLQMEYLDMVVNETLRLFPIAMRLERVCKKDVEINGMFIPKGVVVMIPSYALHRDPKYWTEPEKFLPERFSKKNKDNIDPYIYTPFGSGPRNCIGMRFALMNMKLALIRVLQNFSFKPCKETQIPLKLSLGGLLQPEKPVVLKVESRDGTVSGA

Which EC50 [1] does the source give for `Cc1ccc(/C=C/C(=O)Nc2ccc(S(=O)(=O)Nc3cc(C)nc(C)n3)cc2)cc1` here?
The EC50 was > 260 µM (inactive).

For `Cc1nc(SCC(=O)N2CCN(c3ccccc3)CC2)c2oc3ccccc3c2n1`, which IC50 (H9c2) is on record?
The IC50 was > 79 µM (inactive).

For `COc1ncc2nc(-c3cccc(C#N)c3)c(=O)n(CCC#N)c2n1`, which AC50 (Cytochrome P450 2D6) is on record?
The AC50 was 15.8 µM (inconclusive).

What about the AC50 (Cytochrome P450 1A2) of the same molecule?
Its AC50 is 20 µM (inconclusive).

Which results are given for `C/C(=N\O)c1cccc[n+]1Cc1ccccc1`?
AC50 (Cytochrome P450 2C19; read-out: AC50): 0.1 µM (inconclusive); AC50 (Cytochrome P450 2D6): 3.98 µM (inconclusive)

With `CC(C)(C)c1ccc(C(=O)NC(=S)Nn2cnnc2)cc1` as the molecule, how does the EC50 [2] read?
The EC50 was > 120 µM (not active).

What about the EC50 [3] of the same molecule?
Its EC50 is 69.9 µM (active).

What about the EC50 (H4) of the same molecule?
The EC50 was 30.1 µM (active).

For `CC(C)C(=O)Nc1ccc(NC(=O)c2cccnc2)cn1`, which AC50 (Cytochrome P450 2C19; read-out: AC50) is on record?
Its AC50 is 7.08 µM (inconclusive).

Which AC50 (Cytochrome P450 2D6) does the source give for `CN1CCN(c2ncncc2-c2cccnc2)CC1` here?
The AC50 was 2.51 µM (inconclusive).

And the AC50 (Cytochrome P450 1A2)?
The AC50 was 25.1 µM (inconclusive).

What about the AC50 (Cytochrome P450 3A4) of the same molecule?
Its AC50 is 12.6 µM (inconclusive).

With `O=[N+]([O-])c1ccc(S(=O)(=O)Cc2ccccc2)c2nonc12` as the molecule, how does the AC50 (Cytochrome P450 2D6) read?
Its AC50 is 6.31 µM (inconclusive).

Which EC50 [1] does the source give for `CCOC(=O)c1cnc(-c2ccccc2)nc1Oc1ccc(C)cc1` here?
The EC50 was > 260 µM (inactive).

For `CN1CCN(CC(=O)N2c3ccccc3Sc3cc4ccccc4cc32)CC1`, which AC50 (Cytochrome P450 2D6) is on record?
The AC50 was 3.16 µM (inconclusive).

And the AC50 (Cytochrome P450 3A4)?
The AC50 was 3.98 µM (inconclusive).

Which results are given for `CC(C)c1ccc(N2C(=O)[C@@H]3Cc4ccccc4CN3C2=O)cc1`?
EC50 [2]: > 120 µM (not active); EC50 [3]: 45 µM (active); EC50 (H4): > 120 µM (not active)

Which EC50 [2] does the source give for `Cc1cc(SCC(=O)NCCN2C(=O)CSC2=O)nc2ccccc12` here?
Its EC50 is > 120 µM (not active).

What about the EC50 [3] of the same molecule?
The EC50 was > 120 µM (not active).

And the EC50 (H4)?
The EC50 was > 120 µM (not active).

Which EC50 [2] does the source give for `Cc1nn(CCOc2ccccc2)c(=O)n1-c1c(F)cccc1F` here?
The EC50 was 15.3 µM (active).

What about the EC50 [3] of the same molecule?
The EC50 was > 120 µM (not active).

And the EC50 (H4)?
The EC50 was 32.2 µM (active).

With `COCCNc1ncnc2ccc(-c3cccc(OC)c3)cc12` as the molecule, how does the AC50 (Cytochrome P450 2C19; read-out: AC50) read?
The AC50 was 2.51 µM (inconclusive).

What about the AC50 (Cytochrome P450 2D6) of the same molecule?
Its AC50 is 39.8 µM (inconclusive).

Which AC50 (Cytochrome P450 2C19) does the source give for `CC[N+](C)(CC)CCN1C(=O)c2ccccc2S1(=O)=O` here?
Its AC50 is “inconclusive”.

Which IC50 (H9c2) does the source give for `COC(=O)c1ccccc1S(=O)(=O)N(Cc1ccco1)Cc1cc2cc(OC)ccc2nc1O` here?
Its IC50 is > 79 µM (inactive).

For `COC(=O)c1cc(S(=O)(=O)N2CCN(c3ccc([N+](=O)[O-])cc3)CC2)c[nH]1`, which EC50 [1] is on record?
The EC50 was > 260 µM (inactive).

For `COc1cc2[nH]c(C(=O)Nc3ccc(F)cc3)cc2c(OC)c1OC`, which EC50 [2] is on record?
Its EC50 is > 120 µM (not active).

And the EC50 [3]?
Its EC50 is 9.27 µM (active).

And the EC50 (H4)?
Its EC50 is > 120 µM (not active).

Which AC50 (Cytochrome P450 2D6) does the source give for `COc1ccc2[nH]cc(CCNc3nc(-c4ccccc4CN(C)C)nc4ccccc34)c2c1` here?
The AC50 was 31.6 µM (inconclusive).

And the AC50 (Cytochrome P450 1A2)?
Its AC50 is 25.1 µM (inconclusive).

What about the AC50 (Cytochrome P450 3A4) of the same molecule?
The AC50 was 2 µM (inconclusive).

With `CC(OC(=O)/C=C/c1ccc2ccccc2n1)C(=O)NCc1ccccc1` (stereo not given) as the molecule, how does the EC50 [1] read?
The EC50 was 13.3 µM (active).

With `CC(C)C(=O)N1CCN(c2ccccc2NC(=O)c2cccc(Cl)c2)CC1` as the molecule, how does the AC50 (Cytochrome P450 2D6) read?
The AC50 was 15.8 µM (inconclusive).

What about the AC50 (Cytochrome P450 1A2) of the same molecule?
The AC50 was 20 µM (inconclusive).

And the AC50 (Cytochrome P450 3A4)?
Its AC50 is 12.6 µM (inconclusive).

What does the source list for `COc1cc2c(cc1NC(=O)CSc1nccn1C)oc1ccccc12`?
EC50 [2]: 13 µM (active); EC50 [3]: 7.9 µM (active); EC50 (H4): 27.6 µM (active)

For `CCn1ncc2c1C(=O)NC1c3ccccc3C(=O)N21` (stereo not given), which IC50 (H9c2) is on record?
Its IC50 is 32 µM (inactive).

With `CC(C)NC(=O)N1CC2(CCN(C(=O)c3ccco3)CC2)C1` as the molecule, how does the AC50 (Cytochrome P450 2D6) read?
Its AC50 is 12.6 µM (inconclusive).

With `COc1cccc(-c2ccc3ncnc(NCCNC(C)=O)c3c2)c1` as the molecule, how does the AC50 (Cytochrome P450 2D6) read?
The AC50 was 39.8 µM (inconclusive).

With `CCOc1ccc(-n2cc(C(=O)N3CCC(C)CC3)c3cc(OC)c(OC)cc3c2=O)cc1` as the molecule, how does the EC50 [1] read?
The EC50 was > 260 µM (inactive).

With `C=CCN1C(=O)NC(=O)/C(=C(/CC)Nc2ccc3c(c2)CCC3)C1=O` as the molecule, how does the EC50 [1] read?
Its EC50 is > 260 µM (inactive).

For `O=C(CSc1nn(-c2ccc(F)cc2)c(=S)s1)N1CCN(C(=O)c2ccco2)CC1`, which EC50 [1] is on record?
The EC50 was > 260 µM (inactive).
